Results on 17 compounds are retold here after ChEMBL document CHEMBL4017502, “Discovery and Characterization of (R)-6-Neopentyl-2-(pyridin-2-ylmethoxy)-6,7-dihydropyrimido[2,1-c][1,4]oxazin-4(9H)-one (PF-06462894), an Alkyne-Lacking Metabotropic Glutamate Receptor 5 Negative Allosteric Modulator Profiled in both Rat and Nonhuman Primates” (J Med Chem, 2017).

The structures appear in SMILES notation.

The nature of series [1]: Apparent permeability across apical to basolateral side in RRCK cells at 1 uM after 2 hrs by LC/MS-MS analysis. The class given is ADME, cell-based, Canis lupus familiaris, MDCKII-LE. The settings on record: dog, MDCK.
The nature of series [2]: Volume of distribution at steady state in Sprague-Dawley rat at 1 mg/kg, iv via single bolus administration. It counts as ADME, organism-based. The settings on record: in vivo, read-out: Vdss.
Series [3] is described as follows: Volume of distribution at steady state in cynomolgus monkey at 1 mg/kg, iv via single bolus administration. The class given is ADME, organism-based, Macaca fascicularis. The conditions noted are these: in vivo, read-out: Vdss.
Series [4] can be described thus: Oral bioavailability in Sprague-Dawley rat at 25 mg/kg. It counts as ADME, organism-based. The conditions noted are these: in vivo.
Series [5] is described as follows: Oral bioavailability cynomolgus monkey […] at 30 mg/kg. It counts as ADME, organism-based, Macaca fascicularis. The settings on record: in vivo.
The test system of series [6] is Plasma. In words: Plasma concentration in human. It counts as ADME, cell-free.
A short description of series [7]: Ratio of free AUC (0 to 4 hrs) in Sprague-Dawley rat brain to plasma at 0.32 to 1 mg/kg, sc. It counts as ADME, organism-based.
Series [8] in a line: Ratio of unbound drug level in cynomolgus monkey brain to plasma at 600 mg/kg, po measured 7.65 hrs post dose on day 1. The class given is ADME, organism-based, Macaca fascicularis. The conditions noted are these: read-out: K(p,uu,brain).
Series [9] in a line: Volume of distribution at steady state in 6 MPTP-treated dyskinetic PD-LID rhesus monkey at 2 mg/kg administered BID. It counts as ADME, organism-based, Macaca mulatta. The conditions noted are these: in vivo, read-out: Vdss.
The nature of series [10]: Bioavailability in 6 MPTP-treated dyskinetic PD-LID rhesus monkey model at 2 mg/kg administered BID. It counts as ADME, organism-based, Macaca mulatta. The settings on record: in vivo.
Series [11] can be described thus: AUC (0 to 24 hrs) at steady state in Crl:CD(SD) rat at 50 mg/kg/day, administered via oral gavage for 14 consecutive days measured on day 13. The class given is ADME, organism-based. Set-up: dose 50 mg/kg/day, time < 24 hr, route oral. The conditions noted are these: in vivo.
A short description of series [12]: AUC (0 to 24 hrs) at steady state in Crl:CD(SD) rat at 150 mg/kg/day, administered via oral gavage for 14 consecutive days measured on day 13. It counts as ADME, organism-based. Also noted: time < 24 hr, dose 150 mg/kg/day, route oral. The conditions noted are these: in vivo.
Series [13] is described as follows: AUC (0 to 24 hrs) at steady state in Crl:CD(SD) rat at 500 mg/kg/day, administered via oral gavage for 14 consecutive days measured on day 13. The class given is ADME, organism-based. Set-up: dose 500 mg/kg/day, time < 24 hr, route oral. The conditions noted are these: in vivo.
Series [14] is described as follows: AUC (0 to 24 hrs) at steady state in cynomolgus monkey at 50 mg/kg/day, administered via oral gavage for 14 consecutive days measured on day 13. Set-up: time < 24 hr, dose 50 mg/kg/day, route oral. The settings on record: in vivo. It counts as ADME, organism-based, Macaca fascicularis.
A short description of series [15]: AUC (0 to 24 hrs) at steady state in cynomolgus monkey at 150 mg/kg/day, administered via oral gavage for 14 consecutive days measured on day 13. It counts as ADME, organism-based, Macaca fascicularis. Also noted: time < 24 hr, dose 150 mg/kg/day, route oral. The conditions noted are these: in vivo.
Series [16] can be described thus: AUC (0 to 24 hrs) at steady state in cynomolgus monkey at 600 mg/kg/day, administered via oral gavage for 14 consecutive days measured on day 13. Also noted: dose 600 mg/kg/day, time < 24 hr, route oral. The conditions noted are these: in vivo. It counts as ADME, organism-based, Macaca fascicularis.
In series [17] the test system is Plasma. In words: Drug metabolism in Crl:CD(SD) rat plasma assessed as metabolite formation at 150 mg/kg, administered via oral gavage measured on day 1 by UV-LC-MS/MS analysis. The settings on record: in vivo. It counts as ADME, organism-based.
Series [18] has as its system Plasma. The series can be described thus: Drug metabolism in cynomolgus monkey plasma assessed as monohydroxylated metabolite formation at 150 mg/kg, administered via oral gavage measured on day 12 by UV-LC-MS/MS analysis. It counts as ADME, organism-based, Macaca fascicularis. The conditions noted are these: in vivo.
In series [19] the test system is Plasma. The series can be described thus: Drug metabolism in cynomolgus monkey plasma assessed as N-oxygenated metabolite formation at 150 mg/kg, administered via oral gavage measured on day 12 by UV-LC-MS/MS analysis. It counts as ADME, organism-based, Macaca fascicularis. The settings on record: in vivo.
For series [20], the system named is Plasma. In words: Drug metabolism in cynomolgus monkey plasma assessed as O-dealkylated metabolite formation at 150 mg/kg, administered via oral gavage measured on day 12 by UV-LC-MS/MS analysis. The class given is ADME, organism-based, Macaca fascicularis. The settings on record: in vivo.
Series [21] deals with Plasma. In words: Drug metabolism in cynomolgus monkey plasma assessed as glucuronidated metabolite formation at 150 mg/kg, administered via oral gavage measured on day 12 by UV-LC-MS/MS analysis. The class given is ADME, organism-based, Macaca fascicularis. The settings on record: in vivo.
The subject of series [22] is Plasma. In words: Drug metabolism in cynomolgus monkey plasma assessed as metabolite formation at 150 mg/kg, administered via oral gavage measured on day 1 by UV-LC-MS/MS analysis. It counts as ADME, organism-based, Macaca fascicularis. The settings on record: in vivo.

In general, Papp A→B refers to how fast a substance crosses the layer from the apical side. Take `O=c1cc(SCc2ccccn2)nc2ccccn12`: in [1], the Papp A→B at 2 h, 1 µM turned out to be 26 ×10⁻⁶ cm/s.
By bioavailability is commonly meant the share of a dose that reaches the circulation, judged against a reference dose that is usually intravenous. In general, AUC refers to the area under the concentration-time curve, a measure of exposure. In the case of `CC(C)(C)C[C@@H]1COCc2nc(OCc3ccccn3)cc(=O)n21`, the Papp A→B at 2 h, 1 µM in series [1] was found to be 29 ×10⁻⁶ cm/s. In addition, the Vd in series [2] came to 1.29 L/kg; in series [3], 1.24 L/kg; in series [9], 1 L/kg. Further, the bioavailability in [4] was 20%; in [5], 11%; in series [10], 91%. The same compound showed a Cp in series [6] of 31 ng/mL. For the same compound, in [7], the Kp uu is 1.22. The Kp uu at 7.65 h in series [8] worked out at 0.89. Besides, the exposure (AUC) at 24 h came to 23200 ng·h/mL in [11]; 117000 ng·h/mL in series [12]; 313000 ng·h/mL in series [13]; 3680 ng·h/mL in series [14]; 45400 ng·h/mL in series [15]; 41500 ng·h/mL in series [16]. Also, the Drug metabolism entry in [17], in [18], in [19], in series [20], in series [21] and in series [22] was “Metabolite_Detected” each time.
Turning to `N#Cc1cccc(COc2cc(=O)n3c(n2)COC[C@H]3Cc2ccccc2)c1`, the Papp A→B at 2 h, 1 µM in [1] was found to be 26 ×10⁻⁶ cm/s.
Same read-out and setting: with `O=c1cc(OCc2cccc(Cl)c2)nc2n1[C@H](Cc1ccccc1)COC2` the figure was 4 ×10⁻⁶ cm/s; with `O=c1cc(OCCC2CC2)nc2n1[C@H](Cc1ccccc1)COC2`, 22 ×10⁻⁶ cm/s.
On the same count and under the same terms, the same measure for `Cc1cccc(COc2cc(=O)n3c(n2)COC[C@H]3Cc2ccccc2)n1`: 22 ×10⁻⁶ cm/s; for `O=c1cc(OCc2cccc(Cl)c2)nc2ccc(Oc3cccnc3)cn12`: 7 ×10⁻⁶ cm/s.
As for `Cc1csc(COc2cc(=O)n3c(n2)COC[C@H]3Cc2ccccc2)n1`, the Papp A→B at 2 h, 1 µM in series [1] turned out to be 26 ×10⁻⁶ cm/s.
Take `O=c1cc(OCc2cccc(Cl)c2)nc2n1CCCC2`: the apparent permeability from apical to basolateral (Papp A→B) at 2 h, 1 µM in [1] worked out at 26 ×10⁻⁶ cm/s.
Regarding `O=c1cc(OCc2cccc(Cl)c2)nc2ccccn12`, the apical-to-basolateral permeability (Papp A→B) at 2 h, 1 µM in [1] came out at 16 ×10⁻⁶ cm/s.
With `CC(C)(C)C[C@@H]1COCc2nc(OCc3cccc(C#N)c3)cc(=O)n21`, the Papp A→B at 2 h, 1 µM in series [1] was 25 ×10⁻⁶ cm/s.
On to `CC(C)C[C@@H]1COCc2nc(OCc3cccc(C#N)c3)cc(=O)n21`, for which the apparent permeability from apical to basolateral (Papp A→B) at 2 h, 1 µM in series [1] came out at 28 ×10⁻⁶ cm/s. Besides, the Vd is 2.14 L/kg in series [2] and 2.23 L/kg in series [3]. The bioavailability was 62% in series [4] and 43% in series [5]. Further, the Kp uu in series [7] came to 2.19.
As for `O=c1cc(OCc2cccc(Cl)c2)nc2n1[C@@H](Cc1ccccc1)COC2`, the apical-to-basolateral permeability (Papp A→B) at 2 h, 1 µM in series [1] is 4 ×10⁻⁶ cm/s.
Regarding `Cc1cccc(COc2cc(=O)n3cc(Oc4cccnc4)ccc3n2)n1`, in series [1], the Papp A→B at 2 h, 1 µM was found to be 24 ×10⁻⁶ cm/s.
Take `CC(C)C[C@@H]1COCc2nc(OCc3ccccn3)cc(=O)n21`: the apparent permeability from apical to basolateral (Papp A→B) at 2 h, 1 µM in [1] came out at 39 ×10⁻⁶ cm/s.
Take `O=c1cc(OCc2ccccn2)nc2n1[C@H](Cc1ccccc1)COC2`: the Papp A→B at 2 h, 1 µM in [1] is 28 ×10⁻⁶ cm/s.
Still for that read-out and setting: the same measure for `O=c1cc(OCc2cccc(Cl)c2)nc2n1CCOC2`: 31 ×10⁻⁶ cm/s.
